Assay: Measurement of log P values by HPLC on reversed phase columns (methods [a] pH 2.3, [b] pH 2.7, [c] pH 7.8)
Assay type: physicochemical
Details: for chromatographic logP: reversed phase HPLC columns, pH 2.7, HPLC on reversed phase columns, read-out: logP
How it was run: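 Determined per EEC Directive 79/831 Annex V.A8 by reversed-phase HPLC, 10-95% acetonitrile gradient: [a] pH 2.3, 0.1% phosphoric acid; [b] LC-MS, pH 2.7, 0.1% formic acid; [c] LC-MS, pH 7.8, 0.001 molar ammonium hydrogen carbonate. Calibrated with C3-C16 alkan-2-ones by retention-time interpolation.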

[1] = HPLC reversed phase, method [b] (pH 2.7)
[2] = HPLC on reversed phase column, method [b], pH 2.7
[3] = HPLC reversed phase, method [c] pH 7.8
[4] = method [b], HPLC reversed phase, pH 2.7
[5] = HPLC on reversed phase column, method [c], pH 7.8
[6] = HPLC on reversed phase columns, method [b], pH 2.7

## O=C(NC1CCCCC1c1ccc(Cl)cc1)c1ccccc1I (stereo not drawn) [Example 372]
[1]
  logP: 3.84^[b]

## O=C(N[C@@H]1CC[C@@H]1c1ccc(Cl)cc1Cl)c1cccnc1Cl (relative stereo) [Example 663]
[2]
  logP: 2.84^[b]

## O=C(N[C@@H]1C[C@@H]1c1ccc(Cl)cc1)c1ccccc1F (relative stereo) [Example 269]
[1]
  logP: 2.79^[b]
[3]
  logP: 2.75^[c];

## Fc1ccc(C2CCCC2NC(=S)C2=C(C(F)(F)F)OCCS2)cc1F (stereo not drawn) [Example 150]
[4]
  logP: 4.21^[b]

## Cc1nc(C(F)F)c(C(=O)N(C2CC2)C2CCCCC2c2ccccc2Cl)s1 (stereo not drawn) [Example 171]
[4]
  logP: 4.67^[b]

## CC1=C(C(=O)N[C@@H]2C[C@@H]2c2ccc(Cl)cc2Cl)S(=O)(=O)CCO1 (relative stereo) [Example 614]
[2]
  logP: 2.40^[b]
[5]
  logP: 2.33^[c];

## O=C(NC1CC1c1ccc(Cl)cc1)c1cccnc1Cl (stereo not drawn) [Example 34]
[6]
  logP: 2.43^[b]
HPLC on reversed phase columns, method [c], pH 7.8
  logP: 2.39^[c];

## Cc1nc(C(F)(F)F)c(C(=O)N[C@@H]2CC[C@@H]2c2ccccc2C(F)(F)F)s1 (relative stereo) [Example 634]
[2]
  logP: 3.34^[b]

## O=C(N[C@@H]1CCC[C@@H]1c1ccccc1F)c1ccc(I)s1 (relative stereo) [Compound 337]
[1]
  logP: 3.70^[b]
[3]
  logP: 3.58^[c];

## Cc1nc(C(F)(F)F)c(C(=O)N[C@@H]2CCC[C@H]2c2ccc(F)c(F)c2)s1 (relative stereo) [Example 128]
[4]
  logP: 3.42^[b]

## O=C(NC1CCCCCC1c1ccccc1C(F)(F)F)c1ccccc1I (stereo not drawn) [Example 419]
[1]
  logP: 4.59^[b]

## O=C(N[C@@H]1CC[C@@H]1c1ccc(Cl)cc1Cl)c1ccccc1[N+](=O)[O-] (relative stereo) [Example 661]
[2]
  logP: 3.19^[b]

## Cc1nnsc1C(=O)N[C@@H]1CCC[C@H]1c1ccc(F)c(F)c1 (relative stereo) [Example 109]
[6]
  logP: 2.92^[b]

## O=C(NC1CC1c1ccc(Cl)cc1)c1ccccc1Br (stereo not drawn) [Example 272]
[1]
  logP: 2.82^[b]
[3]
  logP: 2.76^[c];

## O=C(N[C@@H]1CCC[C@@H]1c1ccccc1F)c1nccnc1Cl (relative stereo) [Example 336]
[1]
  logP: 2.61^[b]
[3]
  logP: 2.55^[c];

## CCCc1nn(C)c(F)c1C(=O)N[C@@H]1CCC[C@@H]1c1ccc(F)c(F)c1 (relative stereo) [Example 87]
[6]
  logP: 3.25^[b]

## Cn1cc(C(=O)NC2CCC2c2ccc(Cl)cc2Cl)c(C(F)F)n1 (stereo not drawn) [Example 468]
[1]
  logP: 3.26^[b]

## Cn1cc(C(=O)N[C@@H]2CC[C@@H]2c2ccccc2C(F)(F)F)c(C(F)F)n1 (relative stereo) [Example 263]
[1]
  logP: 2.75^[b]

## Cn1nc(C(F)F)c(C(=O)NC2CC2c2ccc(F)cc2)c1Cl (stereo not drawn) [Example 192]
[4]
  logP: 2.75^[b]

## O=C(NC1CCCCC1c1ccc(Cl)cc1)c1ccccc1Cl (stereo not drawn) [Example 371]
[1]
  logP: 3.65^[b]

## O=C(NC1CC1c1ccccc1Cl)c1ccccc1C(F)(F)F (stereo not drawn) [Example 230]
[4]
  logP: 3.13^[b]

## O=C(N[C@@H]1C[C@]1(F)c1ccc(Cl)cc1)c1sccc1I [Example 749]
Method [b] (pH 2.7)
  chromatographic logP: 3.15

## CC(C)Oc1ccc([C@H]2CCC[C@H]2NC(=O)c2ccccn2)cc1 (relative stereo) [Example 334]
[1]
  logP: 2.41^[b]
[3]
  logP: 2.46^[c];

## O=C(N[C@@H]1CC[C@H]1c1ccccc1Cl)c1ccccc1I (relative stereo) [Example 241]
[4]
  logP: 3.46^[b]

## O=C(N[C@@H]1C[C@H]1c1ccccc1Cl)c1ccccc1C(F)(F)F (relative stereo) [Example 51]
[6]
  logP: 3.31^[b]

## O=C(N[C@@H]1CCC[C@@H]1c1ccc(F)c(F)c1)c1sccc1C(F)(F)F (relative stereo) [Example 93]
[6]
  logP: 3.63^[b]

## O=C(NC1CCCCC1c1ccccc1Br)c1ccccc1I (stereo not drawn) [Example 406]
[1]
  logP: 4.12^[b]

## O=C(N[C@@H]1CC[C@H]1c1ccccc1C(F)(F)F)c1ncccc1Br (relative stereo) [Example 624]
[2]
  logP: 3.34^[b]
[5]
  logP: 3.27^[c];

## O=C(N[C@@H]1CC[C@H]1c1ccccc1Cl)c1cccnc1 (relative stereo) [Example 539]
[1]
  logP: 2.06^[b]

## O=C(N[C@@H]1C[C@@H]1c1ccc(Cl)cc1Cl)c1cncnc1C(F)(F)F (relative stereo) [Example 610]
[2]
  logP: 2.89^[b]
[5]
  logP: 2.87^[c];

## O=C(N[C@@H]1CCC[C@H]1c1ccc(F)c(F)c1)c1cccnc1F (relative stereo) [Example 106]
[6]
  logP: 2.80^[b]

## Cc1nc(Br)sc1C(=O)N[C@@H]1CCC[C@@H]1c1ccc(F)c(F)c1 (relative stereo) [Example 123]
[6]
  logP: 3.46^[b]

## O=C(N[C@@H]1CC[C@H]1c1cccc(F)c1C(F)(F)F)c1ccccc1Br (relative stereo) [Example 632]
[2]
  logP: 3.57^[b]

## O=C(N[C@@H]1CCC[C@@H]1c1ccc(F)c(F)c1)C1=C(C(F)(F)F)OCCS1 (relative stereo) [Example 57]
[6]
  logP: 3.19^[b]

## O=C(N[C@@H]1CCC[C@@H]1c1ccc(C(F)(F)F)cc1)c1ccccc1C(F)(F)F (relative stereo) [Example 302]
[1]
  logP: 3.83^[b]
[3]
  logP: 3.79^[c];

## Cc1nn(C)c(F)c1C(=O)N[C@@H]1C[C@H]1c1ccccc1 (relative stereo) [Example 42]
[6]
  logP: 1.99^[b]

## Cn1cc(C(=O)N[C@@H]2CCC[C@H]2c2ccc(F)c(F)c2)c(C(F)F)n1 (relative stereo) [Example 125]
[6]
  logP: 2.88^[b]

## O=C(NC1CCCC1c1ccc(Cl)cc1)c1ccccc1Cl (stereo not drawn) [Example 278]
[1]
  logP: 3.45^[b]

## CC(C)Oc1ccc([C@H]2CCC[C@H]2NC(=O)c2ccccc2C(F)(F)F)cc1 (relative stereo) [Example 325]
[1]
  logP: 3.90^[b]
[3]
  logP: 3.84^[c];

## Cc1nc(C(F)F)c(C(=O)N(C2CC2)C2CCCC2c2ccccc2Cl)s1 (stereo not drawn) [Example 174]
[4]
  logP: 4.51^[b]

## Cc1nn(C)cc1C(=O)NC1CCCCC1c1ccc(Cl)cc1Cl (stereo not drawn) [Example 416]
[1]
  logP: 3.19^[b]

## Cc1nc(C)c(C(=O)NC2CCCCC2c2ccccc2Cl)s1 (stereo not drawn) [Example 376]
[1]
  logP: 3.24^[b]

## O=C(NC1CCCCC1c1ccccc1Br)c1ccccc1C(F)(F)F (stereo not drawn) [Example 407]
[1]
  logP: 4.10^[b]

## O=C(N[C@@H]1CC[C@H]1c1ccc(F)cc1C(F)(F)F)c1ccccc1[N+](=O)[O-] (relative stereo) [Example 521]
[1]
  logP: 3.10^[b]

## O=C(N[C@@H]1C[C@]1(F)c1ccc(Cl)cc1)c1ccccc1Br [Example 751]
Method [b] (pH 2.7)
  chromatographic logP: 2.84

## O=C(N[C@@H]1CC[C@H]1c1ccccc1C(F)(F)F)c1nccnc1Cl (relative stereo) [Example 622]
[2]
  logP: 2.98^[b]

## O=C(N[C@@H]1CC[C@H]1c1ccc(Cl)cc1Cl)c1ncccc1Cl (relative stereo) [Example 257]
[1]
  logP: 3.69^[b]

## O=C(N[C@@H]1CCC[C@@H]1c1ccc(C(F)(F)F)cc1)c1cccnc1 (relative stereo) [Example 298]
[1]
  logP: 2.46^[b]
[3]
  logP: 2.46^[c];

## CCc1nn(C)c(F)c1C(=O)N(C1CC1)C1CCCCC1c1ccccc1Cl (stereo not drawn) [Example 162]
[4]
  logP: 4.39^[b]

## COc1ccccc1C(=O)N[C@@H]1CCC[C@@H]1c1ccc(F)c(F)c1 (relative stereo) [Example 75]
[6]
  logP: 3.39^[b]

## CCc1nn(C)c(F)c1C(=O)N(C1CC1)C1CCCCC1c1ccc(Cl)cc1Cl (stereo not drawn) [Example 161]
[4]
  logP: 5.08^[b]

From US20160075653A1, “NEMATICIDAL N-(PHENYLCYCLOALKYL)CARBOXAMIDES AND N-(PHENYLCYCLOALKYL)THIOCARBOXAMIDES” (BAYER CROPSCIENCE AKTIENGESELLSCHAFT, priority 2013, published 2016)
